In patent publication US4443478A, “Prostaglandin analogues” (Ono Pharmaceutical Co., Ltd., priority 1981, dated 1984):
Values after ≈ are worked out from the molar mass of the structure shown.

Columns and labels:
uterine contraction = experiment: stimulation of uterine contraction in the pregnant female rat; type: in vivo; settings: 20th day of gestation, intravenous
[1] = system: carbon tetrachloride-induced liver damage; experiment: carbon tetrachloride-induced liver damage in rats; type: in vivo; settings: rat, in comparison with controls
[2] = system: α-naphthylisothiocyanate-induced liver damage; experiment: α-naphthylisothiocyanate-induced liver damage in rats; type: in vivo; settings: rat, oral, 100 μg/kg, in comparison with controls
male mice = experiment: acute toxicity by oral administration; type: in vivo, mouse
Protocol: On the other hand, the compounds of the present invention were confirmed that their toxicities (i.e. LD50) were more than […] animal body weight by oral administration. Therefore, the compounds of the present invention may be considered to be sufficiently safe and suitable for medical use.

stress ulceration = experiment: inhibition of stress ulceration in rats; type: in vivo; settings: rat, oral
Excerpt: For example, in standard laboratory tests, (i) in stress ulceration of rats [produced according to the methods of Takagi and Okabe, Jap.

blood pressure = experiment: fall in blood pressure in the allobarbital-anaesthetized dog; type: in vivo; settings: intravenous
[3] = system: D(+)-galactoseamine-induced liver damage; experiment: D(+)-galactoseamine-induced liver damage in rats; type: in vivo; settings: rat, oral, 100 μg/kg, in comparison with control
[4] = system: adenosine diphosphate-induced blood platelet aggregation; experiment: inhibition of adenosine diphosphate-induced blood platelet aggregation in platelet-rich plasma; type: cell-based; settings: Homo sapiens; platelet-rich plasma of humans; read-out: concentration producing 50% inhibition of adenosine diphosphate-induced blood platelet aggregation

SMILES	stimulation of uterine contraction (uterine contraction; 20 μg/kg)	inhibition of plasma GOT (glutamic oxalacetic transaminase) ([1]; oral, 50 μg/kg) [%]	inhibition of plasma GPT (glutamic pyruvic transaminase) ([1]; oral, 50 μg/kg) [%]	inhibition of plasma GOT [2] [%]	inhibition of plasma GPT [2] [%]	inhibition of plasma bilirubin [2] [%]	deaths in acute toxicity test (male mice; 5 mg/kg)	deaths in acute toxicity test (male mice; 10 mg/kg)	duration of fall in blood pressure (blood pressure; 0.5 μg/kg) [min]	fall in blood pressure (blood pressure; 0.5 μg/kg) [mm Hg]	IC50 [4] [µg/mL]	further results
CCCC[C@H](C)C[C@H](O)/C=C/[C@H]1[C@H](O)CC(=O)[C@@H]1CC(=O)CCCCC(=O)CO (relative stereo) [1-Hydroxymethyl-11α,15(S)-dihydroxy-17(S),20-dimethylprost-trans-13-ene-1,6,9-trione]	stimulated uterine contraction	58.0	59.7	49.0	53.7	21.2	no deaths in 10 cases	no deaths in 10 cases	29	15	–	inhibition of plasma GOT (glutamic oxalacetic transaminase) ([1]; subcutaneous, 20 μg/kg): 61.4%; inhibition of plasma GPT (glutamic pyruvic transaminase) ([1]; subcutaneous, 20 μg/kg): 48.7%; inhibition of stress ulceration (stress ulceration; 20 μg/kg): 56.8%; inhibition of stress ulceration (stress ulceration; 50 μg/kg): 91.8%; duration of fall in blood pressure (blood pressure; 0.3 μg/kg): 14 min; fall in blood pressure (blood pressure; 0.3 μg/kg): 6 mm Hg
CCCC1CC([C@H](O)/C=C/[C@H]2[C@H](O)CC(=O)[C@@H]2CC(=O)CCCCC(=O)CO)C1 (relative stereo) [1-hydroxymethyl-11α,15(S)-dihydroxy-15-(3-propylcyclobutyl)-16,17,18,19,20-pentanorprost-trans-13-ene-1,6,9-trione]	–	–	–	53.1	61.3	30.3	–	–	–	–	–	–
CCCCC1CCC([C@H](O)/C=C/[C@H]2[C@H](O)CC(=O)[C@@H]2CC(=O)CCCCC(=O)CO)C1 (stereo partly drawn) [1-Hydroxymethyl-11α,15(S)-dihydroxy-15-(3-butylcyclopentyl)-16,17,18,19,20-pentanorprost-trans-13-ene-1,6,9-trione]	stimulated uterine contraction	54.9	48.6	30.3	41.7	15.2	–	2 deaths in 5 cases	17	20	0.0036 to 0.072 (≈ 0.00825 to 0.165 µM)	stimulation of uterine contraction (uterine contraction; 50 μg/kg): stimulated uterine contraction; inhibition of plasma GOT [3]: 57.0%; inhibition of plasma GPT [3]: 54.0%; inhibition of plasma bilirubin [3]: 63.0%; duration of fall in blood pressure (blood pressure; 1.0 μg/kg): 40 min; fall in blood pressure (blood pressure; 1.0 μg/kg): 47 mm Hg
CCCC1CCC([C@H](O)/C=C/[C@H]2[C@H](O)CC(=O)[C@@H]2CC(=O)CCCCC(=O)CO)C1 (stereo partly drawn) [1-Hydroxymethyl-11α,15(S)-dihydroxy-15-(3-propylcyclopentyl)-16,17,18,19,20-pentanorprost-trans-13-ene-1,6,9-trione]	–	46.7	45.1	–	–	–	one death in 5 cases	–	–	–	0.0018 to 0.018 (≈ 0.00426 to 0.0426 µM)	duration of fall in blood pressure (blood pressure; 0.1 μg/kg): 9 min; fall in blood pressure (blood pressure; 0.1 μg/kg): 20 mm Hg; duration of fall in blood pressure (blood pressure; 0.2 μg/kg): 23 min; fall in blood pressure (blood pressure; 0.2 μg/kg): 35 mm Hg
